Laboratory results from PMC12298351, “Novel 3,19-(N-Phenyl-3-(4-fluorophenyl)-pyrazole) Acetal of Andrographolide Promotes Cell Cycle Arrest and Apoptosis in MDA-MB-231 Breast Cancer Cells” (Pharmaceuticals, 2025).
“And” between values parts separate entries of the source, which are not always exact repeats. Identical values can stand only once.

Columns and labels:
MDA-MB-231 cells = assay: Cell cycle assay, PI staining, flow cytometry; type: cell-based; conditions: MDA-MB-231, 24 h
Experimental: Cell proliferation is well associated with the regulation of cell cycle progression. Therefore, the effect of 1f on cell cycle distribution was evaluated by flow cytometry in PI-stained cells.
Cell cycle distribution was assessed by propidium iodide (PI) staining followed by flow cytometric analysis. Cells (3 × 10^5/well) were plated in 6-well plates and allowed to adhere for 24 h. To synchronize the cell cycle, the medium was replaced with serum-free medium for 8 h. After synchronization, cells were treated with various concentrations of compound 1f for 24 h. Following treatment, cells were harvested with 1X trypsin, washed with cold PBS, and fixed in 70% ethanol at 4 °C for 2 h. Fixed cells were washed twice with PBS, then incubated overnight in a staining solution containing RNase A (1 µL, 10 mg/mL) and PI (5 µL, 1 mg/mL) in 1X PBS. Cell cycle distribution was subsequently determined using flow cytometry.

[1] = system: MDA-MB-231 breast cancer cells; assay: MTT cell proliferation assay; type: cell-based; conditions: MDA-MB-231, 0-200 µM, 72 h
Experimental: (§1) These MDA-MB-231 breast cancer cells were treated with 1f at different concentrations, i.e., 0, 1.56, 3.125, 6.25, 12.5, 25, 50, 100, and 200 µM, for 72 h.
(§2) MDA-MB-231 breast cancer cells and MCF-10A normal breast epithelial cells (from ATCC, Manassas, VA, USA) were seeded into 96-well plates at a density of 4 × 10^3 cells per well. After overnight incubation at 37 °C, the cells were treated with varying concentrations of compound 1f (0, 1.56, 3.125, 6.25, 12.5, 25, 50, 100, and 200 µM) and incubated for an additional 72 h. Untreated cells served as the negative control. Subsequently, 10 µL of the MTT solution (5 mg/mL) was added to each well, and the plates were incubated for 3 h to assess cell viability. The medium was then discarded, and the absorbance was measured at 570 nm using a microplate reader (Promega GloMax, Madison, WI, USA).

[2] = system: MDA-MB-231 breast cancer cell line; assay: Annexin V-FITC/PI apoptotic assay (FACS); type: cell-based; conditions: MDA-MB-231, 3.33 µM
Experimental: Apoptosis is considered a preventive mechanism against cancer dissemination, as it plays a crucial role in eliminating excessively proliferating and mutated cancer cells from the body. Following the administration of cytotoxic drugs as treatment for various types of cancer, apoptosis is a significant contributor to cellular death. […] We proceeded to investigate whether compound 1f triggers apoptosis or not. The MDA-MB-231 breast cancer cell line was treated with 1f for 24, 48, and 72 h. A quantitative evaluation of apoptotic activity was performed using FACS.
To evaluate the pro-apoptotic effect of compound 1f, Annexin V-FITC/PI dual staining was conducted. Cells were seeded into 12-well plates at a density of 1 × 10^5 cells per well and treated with the compound for 24, 48, and 72 h. Post-treatment, the cells were collected using 1X trypsin, including both floating and adherent cells, and centrifuged at 4000 rpm for 5 min. The resulting pellet was resuspended in 100 µL of 1X Annexin V binding buffer and stained with Annexin V-FITC, followed by a 15 min incubation in the dark at 4 °C. Cells were then washed, resuspended in fresh binding buffer, and stained with propidium iodide before immediate analysis via flow cytometry.

[3] = system: MCF-10a (normal breast cells)
Experimental: as §1, §2

C=C1CCC2C3(C)COC(c4cn(-c5ccccc5)nc4-c4ccc(F)cc4)OC3CCC2(C)C1CC=C1C(=O)OCC1O (stereo not drawn) [1f, 3,19-(N-Phenyl-3-(4-fluorophenyl)-pyrazole) Acetal of Andrographolide]
G1 (%) (MDA-MB-231 cells; 3.33 µM): 77.36 ± 0.69% | G2 (%) (MDA-MB-231 cells; 3.33 µM): 6.94 ± 0.28% | S (%) (MDA-MB-231 cells; 3.33 µM): 14.2% and 14.4 ± 0.95% | G1 (%) (MDA-MB-231 cells; 5.00 µM): 62.83 ± 1.2% | G2 (%) (MDA-MB-231 cells; 5.00 µM): 4.87 ± 0.26% | S (%) (MDA-MB-231 cells; 5.00 µM): 25.2% and 26.5 ± 0.96% | G1 (%) (MDA-MB-231 cells; 6.66 µM): 59.6% and 57.83 ± 1.2% | G2 (%) (MDA-MB-231 cells; 6.66 µM): 4.01% and 3.82 ± 0.20% | S (%) (MDA-MB-231 cells; 6.66 µM): 21.9 ± 1.03% | anti-proliferation activity (MTT) [1]: strong dose-dependent anti-proliferation activity | apoptotic cells (total) ([2]; 24 h): remained almost the same | apoptotic cells (total) ([2]; 48 h): 44% | early apoptosis (Q3) ([2]; 48 h): 10.3% | late apoptosis (Q2) ([2]; 48 h): 33.0% | apoptotic cells (total) ([2]; 72 h): 55% | early apoptosis (Q3) ([2]; 72 h): 14.7% | late apoptosis (Q2) ([2]; 72 h): 40.6% | CC50 [3]: 50 µM
